According to ChEMBL document CHEMBL1157247, “Bioactive natural and semisynthetic latrunculins” (2006):
In brackets after ≈: the same amount, converted by molar mass. Activity calls are given as the source filed them. The rule behind the calls is not given here.

Assays:
[1] = system: Candida albicans; test: Antifungal activity against Candida albicans ATCC 10231 by modified microtiter plate assay; format: functional
[2] = system: Saccharomyces cerevisiae; test: Antifungal activity against Saccharomyces cerevisiae by modified microtiter plate assay; format: functional
[3] = system: Staphylococcus aureus; test: Antibacterial activity against Staphylococcus aureus ATCC 6535 by modified microtiter plate assay; format: functional
[4] = system: Bacillus cereus; test: Antibacterial activity against Bacillus cereus by modified microtiter plate assay; format: functional
[5] = species: Mus musculus; test: Antiproliferative activity against mouse B16B15b cells at 1 uM after 18 hrs by alamar blue assay relative to control; format: functional, cell-based
[6] = species: Gallus gallus; test: Antiangiogenic activity in fertilized white leghorn chicken eggs at 57 uM/disk by CAM assay; format: functional; conditions: Egg
[7] = species: Mus musculus; test: Inhibition of mouse B16B15b cell migration at 1 uM by Boyden's camber assay; format: functional
[8] = species: Gallus gallus; test: Antiangiogenic activity in fertilized white leghorn chicken eggs at 12 uM/disk by CAM assay; format: functional; conditions: Egg
[9] = species: Mus musculus; test: Inhibition of mouse B16B15b cell migration assessed as wound closure rate at 1 uM after 14 hrs by wound healing assay relative to control; format: functional

C/C1=C/C(=O)O[C@@H]2CC(CC[C@H](C)/C=C\C=C\CC1)O[C@@](O)([C@H]1CSC(=O)N1)C2
MIC [1]: 2.5 µM (≈ 1.05 µg/mL) | MIC [2]: 2.5 µM (≈ 1.05 µg/mL)

CC(=O)N1C(=O)SC[C@H]1C(=O)/C=C/C[C@H]1CC[C@H](C)/C=C\CC/C(C)=C\C(=O)O1
MIC [3]: 17.8 µM (≈ 7.47 µg/mL) | MIC [4]: 17.8 µM (≈ 7.47 µg/mL) | Activity [5]: Active | MIC [1]: 2.5 µM (≈ 1.05 µg/mL) | MIC [2]: 2.5 µM (≈ 1.05 µg/mL)

COc1cc(/C=C/C(=O)CC(=O)/C=C/c2ccc(O)c(OC)c2)ccc1O
Activity [6]: Active

CO[C@]1([C@@H]2CSC(=O)N2)C[C@H]2C[C@@H](CC[C@H](C)/C=C\CC/C(C)=C\C(=O)O2)O1 [15-METHOXYLATRUNCULIN B]
Activity [7]: Active | Activity [8]: Active | MIC [1]: 2.5 µM (≈ 1.02 µg/mL) | MIC [2]: 2.5 µM (≈ 1.02 µg/mL)

CCCCO[C@]1([C@@H]2CSC(=O)N2)C[C@H]2C[C@@H](CC[C@H](C)/C=C\CC/C(C)=C\C(=O)O2)O1 [15-O-BUTYLLATRUNCULIN B]
Activity [5]: Active | MIC [1]: 2.5 µM (≈ 1.13 µg/mL) | MIC [2]: 2.5 µM (≈ 1.13 µg/mL)

CCCCCCCCO[C@]1([C@@H]2CSC(=O)N2)C[C@H]2C[C@@H](CC[C@H](C)/C=C\CC/C(C)=C\C(=O)O2)O1 [15-O-OCTYLLATRUNCULIN B]
MIC [3]: 14.7 µM (≈ 7.46 µg/mL) | MIC [4]: 14.7 µM (≈ 7.46 µg/mL) | Activity [5]: Active | MIC [1]: 2.5 µM (≈ 1.27 µg/mL) | MIC [2]: 2.5 µM (≈ 1.27 µg/mL)

Clc1ccccc1C(c1ccccc1)(c1ccccc1)n1ccnc1 [CLOTRIMAZOLE]
MIC [1]: 21.7 µM (≈ 7.48 µg/mL) | MIC [2]: 21.7 µM (≈ 7.48 µg/mL)

C/C1=C/C(=O)O[C@@H]2C[C@@H](CC[C@H](C)/C=C\CC1)O[C@@](O)([C@@H]1CSC(=O)N1)C2 [LATRUNCULIN B]
Activity [9]: Active | Activity [5]: Active | MIC [1]: 2.5 µM (≈ 0.989 µg/mL) | MIC [2]: 2.5 µM (≈ 0.989 µg/mL)

CC(=O)N1C(=O)SC[C@H]1[C@@]1(O)C[C@H]2C[C@@H](CC[C@H](C)/C=C\CC/C(C)=C\C(=O)O2)O1 [N-ACETYLLATRUNCULIN B]
Activity [9]: Active | MIC [1]: 2.5 µM (≈ 1.09 µg/mL) | MIC [2]: 2.5 µM (≈ 1.09 µg/mL)

C/C1=C/C(=O)O[C@@H]2C[C@@H](CC[C@H](C)/C=C\CC1)O[C@@](O)([C@@H]1CSC(=O)N1CO)C2 [N-HYDROXYMETHYLLATRUNCULIN B]
Activity [7]: Active | MIC [1]: 2.5 µM (≈ 1.06 µg/mL) | MIC [2]: 2.5 µM (≈ 1.06 µg/mL)

CC1(C)S[C@@H]2[C@H](NC(=O)Cc3ccccc3)C(=O)N2[C@H]1C(=O)O [PENICILLIN G]
MIC [3]: 22.4 µM (≈ 7.49 µg/mL) | MIC [4]: 22.4 µM (≈ 7.49 µg/mL)
